In ChEMBL document CHEMBL5291721, “A preclinical secondary pharmacology resource illuminates target-adverse drug reaction associations of marketed drugs” (Nat Commun, 2023):

Key:
[1] = biological target: T1, Peroxisome proliferator-activated receptor gamma (Homo sapiens, UniProt P37231); assay type: functional
T1 sequence (P37231 whole entry): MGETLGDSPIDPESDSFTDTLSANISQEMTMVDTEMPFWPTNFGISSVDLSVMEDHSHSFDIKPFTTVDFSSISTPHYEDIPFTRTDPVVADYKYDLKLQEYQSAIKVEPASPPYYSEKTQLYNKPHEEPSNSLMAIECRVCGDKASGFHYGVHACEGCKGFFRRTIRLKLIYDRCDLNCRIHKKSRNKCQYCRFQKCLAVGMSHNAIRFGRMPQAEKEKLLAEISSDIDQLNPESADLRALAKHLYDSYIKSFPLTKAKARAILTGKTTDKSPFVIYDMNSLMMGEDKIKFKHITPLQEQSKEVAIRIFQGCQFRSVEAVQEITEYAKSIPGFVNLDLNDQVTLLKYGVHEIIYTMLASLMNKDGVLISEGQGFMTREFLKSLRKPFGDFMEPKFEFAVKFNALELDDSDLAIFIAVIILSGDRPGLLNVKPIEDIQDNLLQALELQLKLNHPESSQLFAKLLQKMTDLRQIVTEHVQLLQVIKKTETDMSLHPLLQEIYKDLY

[2] = biological target: Beta-1 adrenergic receptor (Homo sapiens, UniProt P08588); assay type: functional, cell-based
[3] = biological target: Gamma-aminobutyric acid receptor subunit alpha-1/alpha-2/beta-2/gamma-2 (Homo sapiens, UniProt P14867+P18507+P47869+P47870); assay type: functional, cell-based
[4] = biological target: T2, Alpha-2A adrenergic receptor (Homo sapiens, UniProt P08913)
T2 sequence (P08913 whole entry): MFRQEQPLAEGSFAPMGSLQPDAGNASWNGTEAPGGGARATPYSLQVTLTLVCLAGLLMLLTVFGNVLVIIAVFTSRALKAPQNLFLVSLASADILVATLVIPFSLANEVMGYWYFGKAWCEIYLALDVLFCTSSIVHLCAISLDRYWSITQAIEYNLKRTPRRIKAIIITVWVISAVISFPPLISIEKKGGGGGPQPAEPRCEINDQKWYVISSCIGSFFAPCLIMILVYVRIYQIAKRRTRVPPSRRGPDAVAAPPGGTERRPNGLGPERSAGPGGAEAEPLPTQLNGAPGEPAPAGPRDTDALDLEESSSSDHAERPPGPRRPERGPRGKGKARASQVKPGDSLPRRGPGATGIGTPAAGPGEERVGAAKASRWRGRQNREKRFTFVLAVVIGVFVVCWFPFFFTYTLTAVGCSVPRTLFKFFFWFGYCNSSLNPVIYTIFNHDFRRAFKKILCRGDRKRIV

[5] = biological target: Sodium channel protein type 5 subunit alpha (Homo sapiens, UniProt Q14524); assay type: functional, cell-based
[6] = biological target: T3, Muscarinic acetylcholine receptor M5 (Homo sapiens, UniProt P08912)
T3 sequence (P08912 whole entry): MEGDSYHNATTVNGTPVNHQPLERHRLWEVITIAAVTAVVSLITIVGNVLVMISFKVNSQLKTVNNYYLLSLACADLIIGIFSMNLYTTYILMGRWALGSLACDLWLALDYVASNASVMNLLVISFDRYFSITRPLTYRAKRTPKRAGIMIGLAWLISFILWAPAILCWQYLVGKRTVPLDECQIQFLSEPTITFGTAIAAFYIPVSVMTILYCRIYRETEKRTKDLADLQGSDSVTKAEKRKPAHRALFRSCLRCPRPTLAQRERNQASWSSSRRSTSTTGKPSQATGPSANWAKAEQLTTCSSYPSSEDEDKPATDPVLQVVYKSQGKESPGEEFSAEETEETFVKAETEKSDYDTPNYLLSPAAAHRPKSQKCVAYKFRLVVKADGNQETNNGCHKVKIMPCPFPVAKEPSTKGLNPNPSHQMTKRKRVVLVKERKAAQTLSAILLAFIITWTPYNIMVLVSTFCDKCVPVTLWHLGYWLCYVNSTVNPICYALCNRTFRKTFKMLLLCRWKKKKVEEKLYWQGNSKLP

Cannabinoid receptor 1 = Cannabinoid receptor 1 (Homo sapiens, UniProt P21554); assay type: functional
[7] = biological target: Gamma-aminobutyric acid type B receptor subunit 1 (Homo sapiens, UniProt Q9UBS5)
[8] = biological target: 5-hydroxytryptamine receptor 6 (Homo sapiens, UniProt P50406)
[9] = biological target: 5-hydroxytryptamine receptor 7 (Homo sapiens, UniProt P34969)
Substance-P receptor = Substance-P receptor (Homo sapiens, UniProt P25103)
[10] = biological target: T4, Muscarinic acetylcholine receptor M4 (Homo sapiens, UniProt P08173)
T4 sequence (P08173 whole entry): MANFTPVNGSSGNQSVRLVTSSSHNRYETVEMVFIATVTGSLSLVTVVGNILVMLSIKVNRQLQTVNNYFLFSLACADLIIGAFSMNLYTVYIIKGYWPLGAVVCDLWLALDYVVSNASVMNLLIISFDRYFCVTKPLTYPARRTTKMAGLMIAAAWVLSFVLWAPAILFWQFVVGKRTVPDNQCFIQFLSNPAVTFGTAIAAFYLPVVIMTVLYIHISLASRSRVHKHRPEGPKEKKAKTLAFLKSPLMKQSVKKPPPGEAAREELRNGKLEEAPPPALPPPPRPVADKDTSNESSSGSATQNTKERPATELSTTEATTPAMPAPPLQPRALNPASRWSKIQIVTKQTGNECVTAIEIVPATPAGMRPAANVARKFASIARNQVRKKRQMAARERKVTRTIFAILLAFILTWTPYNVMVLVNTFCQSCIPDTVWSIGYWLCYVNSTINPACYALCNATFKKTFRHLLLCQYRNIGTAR

D(1B) dopamine receptor = D(1B) dopamine receptor (Homo sapiens, UniProt P21918)
[11] = biological target: 5-hydroxytryptamine receptor 5A (Homo sapiens, UniProt P47898)
D(1A) dopamine receptor = D(1A) dopamine receptor (Homo sapiens, UniProt P21728)
Further: assay procedure not described here.

Chain of Cannabinoid receptor 1 (P21554 whole entry): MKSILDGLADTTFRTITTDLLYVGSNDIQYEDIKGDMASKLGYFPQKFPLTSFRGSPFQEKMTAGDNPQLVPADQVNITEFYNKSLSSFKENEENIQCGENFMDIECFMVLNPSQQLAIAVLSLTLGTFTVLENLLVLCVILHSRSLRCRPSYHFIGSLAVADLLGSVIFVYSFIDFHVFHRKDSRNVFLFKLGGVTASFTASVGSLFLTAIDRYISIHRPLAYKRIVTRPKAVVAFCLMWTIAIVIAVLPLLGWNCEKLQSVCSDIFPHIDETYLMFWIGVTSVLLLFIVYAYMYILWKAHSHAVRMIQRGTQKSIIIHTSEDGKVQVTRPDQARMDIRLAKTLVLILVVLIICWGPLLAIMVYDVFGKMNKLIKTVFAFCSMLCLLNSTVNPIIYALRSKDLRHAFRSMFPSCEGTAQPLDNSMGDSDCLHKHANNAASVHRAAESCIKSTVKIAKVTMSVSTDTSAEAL
Chain of 5-hydroxytryptamine receptor 7 (P34969 whole entry): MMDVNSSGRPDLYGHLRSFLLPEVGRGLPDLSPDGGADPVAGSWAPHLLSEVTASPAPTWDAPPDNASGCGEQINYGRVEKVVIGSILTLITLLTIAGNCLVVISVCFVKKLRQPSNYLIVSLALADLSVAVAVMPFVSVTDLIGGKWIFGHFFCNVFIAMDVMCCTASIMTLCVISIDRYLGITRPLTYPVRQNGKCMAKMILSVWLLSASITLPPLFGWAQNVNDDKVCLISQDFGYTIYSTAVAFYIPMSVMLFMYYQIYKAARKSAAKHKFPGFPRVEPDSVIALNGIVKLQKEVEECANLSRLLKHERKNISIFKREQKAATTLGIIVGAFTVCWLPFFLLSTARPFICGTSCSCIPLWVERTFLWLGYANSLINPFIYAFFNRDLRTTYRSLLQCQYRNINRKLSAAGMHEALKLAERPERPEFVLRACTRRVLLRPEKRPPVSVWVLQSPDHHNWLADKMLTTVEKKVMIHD
Chain of Substance-P receptor (P25103 whole entry): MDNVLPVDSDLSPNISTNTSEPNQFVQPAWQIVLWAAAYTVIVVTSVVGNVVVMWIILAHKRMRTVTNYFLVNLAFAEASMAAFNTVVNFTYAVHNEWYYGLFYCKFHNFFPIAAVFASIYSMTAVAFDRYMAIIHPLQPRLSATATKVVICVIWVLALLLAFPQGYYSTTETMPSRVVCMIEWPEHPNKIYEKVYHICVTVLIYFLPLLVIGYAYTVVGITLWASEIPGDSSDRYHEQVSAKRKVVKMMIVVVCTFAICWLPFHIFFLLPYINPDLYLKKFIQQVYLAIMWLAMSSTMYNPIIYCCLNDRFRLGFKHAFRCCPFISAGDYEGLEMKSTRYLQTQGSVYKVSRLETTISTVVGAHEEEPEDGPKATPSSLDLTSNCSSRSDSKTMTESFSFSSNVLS
Chain of Gamma-aminobutyric acid type B receptor subunit 1 (Q9UBS5 whole entry): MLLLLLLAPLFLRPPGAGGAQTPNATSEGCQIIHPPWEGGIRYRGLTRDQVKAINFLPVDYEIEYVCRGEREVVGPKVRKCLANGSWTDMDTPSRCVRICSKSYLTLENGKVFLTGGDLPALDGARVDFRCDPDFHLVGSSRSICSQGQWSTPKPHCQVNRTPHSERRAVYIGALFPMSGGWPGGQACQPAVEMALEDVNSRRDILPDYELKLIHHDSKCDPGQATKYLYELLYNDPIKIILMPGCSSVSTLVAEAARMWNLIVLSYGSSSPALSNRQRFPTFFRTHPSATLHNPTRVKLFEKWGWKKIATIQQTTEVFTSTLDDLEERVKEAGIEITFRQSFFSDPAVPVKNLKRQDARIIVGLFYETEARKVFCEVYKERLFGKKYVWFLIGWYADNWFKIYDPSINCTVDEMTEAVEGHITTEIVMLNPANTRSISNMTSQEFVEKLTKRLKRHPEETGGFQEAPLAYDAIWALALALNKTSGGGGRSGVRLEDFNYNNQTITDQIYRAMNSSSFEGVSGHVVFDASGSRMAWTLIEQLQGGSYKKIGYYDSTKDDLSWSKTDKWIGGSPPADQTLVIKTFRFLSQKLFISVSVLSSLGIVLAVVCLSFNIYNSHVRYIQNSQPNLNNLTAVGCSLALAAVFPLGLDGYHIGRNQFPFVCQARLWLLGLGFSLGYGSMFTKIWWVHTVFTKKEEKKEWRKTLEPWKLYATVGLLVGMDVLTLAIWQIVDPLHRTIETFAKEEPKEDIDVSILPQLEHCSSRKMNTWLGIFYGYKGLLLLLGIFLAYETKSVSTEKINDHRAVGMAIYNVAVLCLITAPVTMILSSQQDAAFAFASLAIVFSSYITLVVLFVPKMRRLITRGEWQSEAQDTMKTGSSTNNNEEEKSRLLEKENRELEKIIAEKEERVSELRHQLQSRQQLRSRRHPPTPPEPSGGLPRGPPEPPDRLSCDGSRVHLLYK
Chain of Sodium channel protein type 5 subunit alpha (Q14524 whole entry): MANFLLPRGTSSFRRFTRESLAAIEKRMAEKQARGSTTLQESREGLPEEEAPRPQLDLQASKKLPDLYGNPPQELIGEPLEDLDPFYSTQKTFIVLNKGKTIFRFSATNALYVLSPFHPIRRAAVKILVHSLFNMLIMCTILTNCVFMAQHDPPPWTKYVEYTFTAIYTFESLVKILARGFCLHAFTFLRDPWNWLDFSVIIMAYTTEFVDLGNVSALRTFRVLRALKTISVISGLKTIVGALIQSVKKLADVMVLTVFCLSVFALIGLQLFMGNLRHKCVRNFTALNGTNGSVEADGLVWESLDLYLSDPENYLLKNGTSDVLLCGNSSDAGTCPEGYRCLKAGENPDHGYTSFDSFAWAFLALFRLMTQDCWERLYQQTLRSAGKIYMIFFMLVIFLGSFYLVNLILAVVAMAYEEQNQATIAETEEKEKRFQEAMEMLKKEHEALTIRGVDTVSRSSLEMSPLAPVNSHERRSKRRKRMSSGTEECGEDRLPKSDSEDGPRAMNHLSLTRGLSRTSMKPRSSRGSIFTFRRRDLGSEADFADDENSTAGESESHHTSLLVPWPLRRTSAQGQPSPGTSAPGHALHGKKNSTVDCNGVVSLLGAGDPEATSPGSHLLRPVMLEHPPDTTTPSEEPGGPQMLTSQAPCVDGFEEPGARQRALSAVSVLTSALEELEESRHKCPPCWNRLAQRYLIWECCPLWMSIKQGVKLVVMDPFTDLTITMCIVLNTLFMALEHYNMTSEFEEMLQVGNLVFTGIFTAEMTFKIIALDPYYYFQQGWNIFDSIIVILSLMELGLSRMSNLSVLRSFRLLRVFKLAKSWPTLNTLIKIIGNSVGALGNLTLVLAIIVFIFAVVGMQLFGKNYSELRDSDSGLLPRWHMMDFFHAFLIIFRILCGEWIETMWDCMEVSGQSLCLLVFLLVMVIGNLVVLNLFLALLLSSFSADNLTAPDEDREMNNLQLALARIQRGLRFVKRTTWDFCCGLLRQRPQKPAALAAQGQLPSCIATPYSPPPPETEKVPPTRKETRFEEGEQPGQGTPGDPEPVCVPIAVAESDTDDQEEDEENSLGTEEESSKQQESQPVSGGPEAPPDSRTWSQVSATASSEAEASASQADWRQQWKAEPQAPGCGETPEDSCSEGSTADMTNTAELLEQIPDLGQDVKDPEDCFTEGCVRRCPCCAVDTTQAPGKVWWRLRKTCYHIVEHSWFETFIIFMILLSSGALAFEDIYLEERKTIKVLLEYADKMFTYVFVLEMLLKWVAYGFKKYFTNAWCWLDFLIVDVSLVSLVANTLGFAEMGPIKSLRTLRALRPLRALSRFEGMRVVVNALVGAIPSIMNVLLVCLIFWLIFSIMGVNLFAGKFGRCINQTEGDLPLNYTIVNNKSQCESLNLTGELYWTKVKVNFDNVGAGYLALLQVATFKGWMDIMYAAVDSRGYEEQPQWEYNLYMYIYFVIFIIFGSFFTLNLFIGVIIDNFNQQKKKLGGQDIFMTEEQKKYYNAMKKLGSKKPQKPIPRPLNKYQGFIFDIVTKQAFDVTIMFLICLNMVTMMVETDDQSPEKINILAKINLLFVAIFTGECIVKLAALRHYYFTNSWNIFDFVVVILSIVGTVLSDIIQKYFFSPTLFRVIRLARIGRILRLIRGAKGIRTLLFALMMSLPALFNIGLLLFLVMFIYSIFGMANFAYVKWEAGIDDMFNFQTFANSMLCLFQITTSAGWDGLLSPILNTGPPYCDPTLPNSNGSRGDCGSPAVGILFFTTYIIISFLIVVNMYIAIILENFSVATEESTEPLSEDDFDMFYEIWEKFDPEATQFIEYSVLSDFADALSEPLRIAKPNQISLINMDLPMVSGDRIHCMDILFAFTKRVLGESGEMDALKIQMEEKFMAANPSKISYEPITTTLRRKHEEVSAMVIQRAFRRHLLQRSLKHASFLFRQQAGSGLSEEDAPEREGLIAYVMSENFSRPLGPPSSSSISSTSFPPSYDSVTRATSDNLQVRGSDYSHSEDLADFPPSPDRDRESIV
Chain of 5-hydroxytryptamine receptor 6 (P50406 whole entry): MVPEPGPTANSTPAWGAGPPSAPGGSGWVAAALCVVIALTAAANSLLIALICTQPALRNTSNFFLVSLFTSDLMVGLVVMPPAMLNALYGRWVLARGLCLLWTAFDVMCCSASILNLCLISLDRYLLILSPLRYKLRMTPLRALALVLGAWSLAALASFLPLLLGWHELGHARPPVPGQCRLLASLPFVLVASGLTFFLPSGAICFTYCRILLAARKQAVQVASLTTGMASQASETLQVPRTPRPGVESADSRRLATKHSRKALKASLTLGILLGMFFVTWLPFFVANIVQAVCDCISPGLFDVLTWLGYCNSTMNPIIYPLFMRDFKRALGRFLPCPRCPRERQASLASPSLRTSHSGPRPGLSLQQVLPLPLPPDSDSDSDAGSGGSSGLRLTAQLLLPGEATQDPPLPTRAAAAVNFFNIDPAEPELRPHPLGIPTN

CCC(C)C1(CC)C(=O)NC(=O)NC1=O (centres undefined) [BUTABARBITAL]
AC50 [1]: > 30 µM

Oc1ccc2c(c1)CC[C@H](c1ccccc1)[C@@H]2c1ccc(OCCN2CCCC2)cc1 [LASOFOXIFENE]
AC50 [1]: 18 µM

Cc1cc(C(C)(C)C)cc(C)c1CC1=NCCN1 [XYLOMETAZOLINE]
AC50 [2]: > 30 µM | AC50 [3]: > 30 µM | AC50 [4]: 0.005 µM

C[C@]12CC[C@@H]3c4ccc(O)cc4C[C@@H](CCCCCCCCC[S+]([O-])CCCC(F)(F)C(F)(F)F)[C@H]3[C@@H]1CC[C@@H]2O (some centres undefined) [FULVESTRANT]
AC50 [3]: > 30 µM | AC50 [1]: 14 µM | AC50 [5]: > 10 µM

CC(N)C(O)c1ccccc1 (centres undefined) [PHENYLPROPANOLAMINE]
AC50 [6]: > 10 µM | AC50 (Cannabinoid receptor 1): > 10 µM | AC50 [7]: > 10 µM | AC50 [8]: > 10 µM | AC50 [9]: > 10 µM | AC50 (Substance-P receptor): > 10 µM

OC1(c2ccc(Cl)cc2)c2ccccc2C2=NCCN21 (centres undefined) [MAZINDOL]
AC50 [10]: > 10 µM | AC50 [6]: > 10 µM | AC50 (Cannabinoid receptor 1): > 10 µM | AC50 (D(1B) dopamine receptor): > 10 µM | AC50 [7]: > 10 µM | AC50 [11]: > 10 µM | AC50 [8]: > 10 µM | AC50 [9]: > 10 µM | AC50 [5]: > 50 µM | AC50 (Substance-P receptor): > 10 µM

O=C(O)c1cn(C2CC2)c2cc(N3CCNCC3)c(F)cc2c1=O [CIPROFLOXACIN]
AC50 (Substance-P receptor): > 10 µM

CC(C)NCC(O)c1ccc(O)c(O)c1 (centres undefined) [ISOPROTERENOL]
AC50 (Substance-P receptor): > 10 µM

CCC(=O)O[C@]1(C(=O)SCF)[C@H](C)C[C@H]2[C@@H]3C[C@H](F)C4=CC(=O)C=C[C@]4(C)[C@@]3(F)[C@@H](O)C[C@@]21C [FLUTICASONE PROPIONATE]
AC50 (Substance-P receptor): > 10 µM

CC(C(=O)O)c1ccc(CC2CCCC2=O)cc1 (centres undefined) [LOXOPROFEN]
AC50 [2]: > 30 µM

CC(CCc1ccc(O)cc1)NCCc1ccc(O)c(O)c1 (centres undefined) [DOBUTAMINE]
AC50 (Substance-P receptor): > 10 µM

CCC1(c2ccccc2)CCC(=O)NC1=O (centres undefined) [GLUTETHIMIDE]
AC50 [5]: > 50 µM

O=[N+]([O-])c1ccc(O)c2ncccc12 [NITROXOLINE]
AC50 (D(1A) dopamine receptor): > 30 µM | AC50 [3]: > 30 µM

C/N=C(\NC)NCc1ccccc1 [BETHANIDINE]
AC50 [3]: > 30 µM | AC50 [1]: > 30 µM

C[C@H](Cc1cc2c(c(C(N)=O)c1)N(CCCO)CC2)NCCOc1ccccc1OCC(F)(F)F [SILODOSIN]
AC50 [4]: 6.2 µM

CCOC(=O)C1=C(C)NC(C)=C(C(=O)OC)C1c1cccc([N+](=O)[O-])c1 (centres undefined) [NITRENDIPINE]
AC50 [5]: 5 µM

CCC(C)C(CC)C(N)=O (centres undefined) [VALNOCTAMIDE]
AC50 [3]: > 30 µM

CC(C)COCC(CN(Cc1ccccc1)c1ccccc1)N1CCCC1 (centres undefined) [BEPRIDIL]
AC50 [1]: > 30 µM | AC50 [5]: 2.1 µM

Cc1cnc(C(=O)NCCc2ccc(S(=O)(=O)NC(=O)NC3CCCCC3)cc2)cn1 [GLIPIZIDE]
AC50 [7]: > 10 µM | AC50 [8]: > 10 µM | AC50 [9]: > 10 µM | AC50 (Substance-P receptor): > 10 µM

CN1CCN(C2=Nc3ccccc3Oc3ccc(Cl)cc32)CC1 [LOXAPINE]
AC50 [10]: 3.73 µM | AC50 [6]: 0.671 µM | AC50 (Cannabinoid receptor 1): > 10 µM | AC50 (D(1B) dopamine receptor): 0.248 µM | AC50 [7]: > 10 µM | AC50 [11]: 1.04 µM | AC50 [8]: 0.0574 µM | AC50 [9]: 0.732 µM | AC50 (Substance-P receptor): > 10 µM

C[C@H](Cc1ccc(O)c(O)c1)[C@@H](C)Cc1ccc(O)c(O)c1 [MASOPROCOL]
AC50 [1]: 0.4 µM

C=C1CC[C@H](O)C/C1=C/C=C1\CCC[C@]2(C)[C@@H]([C@H](C)/C=C/[C@H](C)C(C)C)CC[C@@H]12 [ERGOCALCIFEROL]
AC50 (D(1A) dopamine receptor): > 30 µM
